Assays:
[1] = tested on: multiple myeloma patients; conditions: high-dose (25 mg per day) cohort; cited from earlier work
Primary human T cells = assay: Cytokine production and degranulation of CDK4 TCR T cells with Zap70-PD1-degron CRASH-IT switch co-cultured with NKIRTIL006 melanoma cells, thalidomide titration; assay type: cell-based; conditions: as compared to single hybrid, dual zinc finger prior art degron; IFNγ, IL2, TNFα, LAMP-1
From the text: FIG. 1: Sensitivity of zinc finger degrons to IMiD can be improved by alteration of the second zinc finger sequence. (A) Schematic representation of a panel of zinc finger degrons containing the ZFP91 ZF4 beta hairpin and IKZF1 ZF2 alpha helix as a hybrid first zinc finger. […] (B-E) Primary human T cells modified with the HLA class I restricted CDK4 TCR plus a Zap70-PD1-degron CRASH-IT switch, in which the degron sequence is selected from (A), were pretreated with indicated concentrations of thalidomide. Data depict intracellular IFNγ, IL2, TNFα, and cell surface LAMP1 expression of CDK4 TCR+, EGFP high, CD8+ T cells upon co-culture with NKIRTIL006 melanoma cells in the continued presence of indicated concentrations of thalidomide. Error bars represent standard deviation (n=2). Data are representative of two independent experiments.
To our knowledge, the possibility of using a hybrid zinc finger as the second zinc finger as a means to improve the overall sensitivity of the dual zinc finger degron system was not tested before. To investigate whether the second zinc finger (IKZF1 ZF3) of the single hybrid, dual zinc finger prior art degron can be replaced with other zinc finger sequences while preserving or improving sensitivity towards IMiDs, we created a panel of CRASH-IT switches containing the zinc finger degrons shown in FIG. 1. […]

Jurkat cells = assay: SynFinger library screen: CD69 expression of CRASH-IT (Zap70-PD1-degron) transduced Jurkat cells with or without lenalidomide, enrichment index from NGS reads; assay type: cell-based; conditions: Jurkat cells expressing CRASH-IT switch, 50 nM lenalidomide
From the text: […] Jurkat cells were transduced with the SynFinger library (SynFinger containing CRASH-IT switches) at a 12.8% transduction efficiency and sorted for high EGFP expression to enrich transduced cells. For quality control of the SynFinger transduced Jurkat cells, SynFinger sequences were amplified and analyzed by NGS. 10 randomly selected SynFinger encoding DNA sequences or DNA sequences encoding the same SynFinger amino acid sequences but contain 2 nucleotide mismatches due to alternative codon usage were used to assess ability to distinguish true SynFinger sequences from noise in the NGS data. 10/10 SynFinger encoding full-nucleotide sequence match sequences were observed within NGS data whereas the 2 nucleotide mismatch containing sequences were not detected.
Jurkat cells expressing the SynFinger library were treated with 50 nM lenalidomide (a suboptimal dose that activates only ˜50% of cells expressing a CRASH-IT switch containing the parental double hybrid degron in Jurkat cells, as compared to a maximally effective 1000 nM lenalidomide dose) or were mock treated for 24 hours, and subsequently activated with anti-CD3/anti-CD28 antibodies in the presence or absence of 50 nM lenalidomide for 5 hours. Afterwards, cells were stained with IR dye (1:400) and anti-CD69-PE (1:200). Cells were sorted for live (IR dye negative), EGFP high end CD69 high (top 5%) or CD69 low (bottom 5%) expression using Aria Fusion cytometers.
Subsequently, cells were washed with PBS, and cell pellets were frozen at −20° C. until DNA extraction. Genomic DNA was isolated using the DNeasy Blood & Tissue Kit (Qiagen) according to the manufacturer's instructions, using 5×10^6 cells per column. DNA was eluted in 22 μl RNAse free water. Deep sequencing adapters and indexes were added to SynFinger encoding DNA sequences using PCR amplification. Briefly, 3 μg genomic DNA (20 μl), indexed forward and reverse primers (10 μM, 2.5 μl each) and 25 μl NEBNext® High-Fidelity 2×PCR Master Mix were added to the PCR reaction. An optimized PCR reaction (98° C. for 30 s, (98° C. for 10 s, 56° C. for 10 s, 72° C. for 5 s)×25 cycles, 72° C. for 3 min was performed using Eppendorf PCR cyclers.
Indexed PCR products were run on agarose gel, relative DNA concentrations were estimated by measuring band intensity, and 12 indexed PCR reaction products were mixed per MiSeq chip. To increase sequence diversity, samples were mixed with 25% PhiX DNA. In total, 2 MiSeq chips were used (100 bp, single read). To distinguish genuine SynFinger sequences from sequencing errors, results were filtered using a reference list of actual sequences used in SynFinger library design (100% codon match). Sequences with a very low number of reads (sum of all samples below 500 reads) were excluded from analysis.
To identify SynFingers that improve sensitivity of CRASH-IT switches towards lenalidomide while preserving or improving stringency of switch mediated control of T cell activation in the absence of lenalidomide, an enrichment index (EI) value was calculated for each sequence as described below, and SynFingers were ranked according to their EI, with a low EI indicating a SynFinger with desired properties.
CD69-HI and […] read counts from top 100 SynFingers were compared with read counts from the parental double hybrid degron using a two-sided Fisher's exact test to determine enrichment of CD69-HI cells in the presence of lenalidomide and enrichment of CD69-LO cells in the absence of lenalidomide.
To further improve the sensitivity of double hybrid degron towards IMiDs, we performed a high throughput screen using a library of ˜50,200 CRASH-IT variants that encode either single or double amino acid substitutions at the indicated positions of the first hybrid zinc finger sequence, thereby changing 18 amino acids of this zinc finger into any amino acid except cysteine (FIG. 3). […]

[2] = molecular target: IMID/CRBN E3 ligase complex (Homo sapiens, UniProt Q96SW2); conditions: as compared to non-hybrid ZFP91 ZF4 and IKZF1 ZF2 zinc finger degrons; cited from earlier work
Sequence of IMID/CRBN E3 ligase complex (Q96SW2 whole entry, one chain of several): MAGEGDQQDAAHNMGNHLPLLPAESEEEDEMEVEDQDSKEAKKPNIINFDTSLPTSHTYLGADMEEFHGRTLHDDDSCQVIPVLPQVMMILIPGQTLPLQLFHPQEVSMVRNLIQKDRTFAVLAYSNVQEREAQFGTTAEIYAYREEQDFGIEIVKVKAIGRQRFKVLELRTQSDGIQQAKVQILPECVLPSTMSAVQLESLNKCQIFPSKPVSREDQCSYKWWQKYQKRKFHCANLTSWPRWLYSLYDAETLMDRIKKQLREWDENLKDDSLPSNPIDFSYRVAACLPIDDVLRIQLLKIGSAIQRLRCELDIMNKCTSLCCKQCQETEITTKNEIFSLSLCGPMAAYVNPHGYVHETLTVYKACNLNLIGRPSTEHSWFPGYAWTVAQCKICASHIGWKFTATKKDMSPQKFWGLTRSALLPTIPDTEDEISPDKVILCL

Molecule | toxicity in maintenance therapy [1] | sensitivity of the CRASH-IT switch towards thalidomide (Primary human T cells) | cells activated at 50 nM lenalidomide as compared to maximally effective 1000 nM lenalidomide dose (Jurkat cells) | sensitivity towards IMiD induced degradation [2]
Nc1cccc2c1CN(C1CCC(=O)NC1=O)C2=O (centres unmarked) [lenalidomide] | dose reductions due to toxicity, in particular neutropenia, were frequent | – | – | –
LQCEICGFTCRQKGNLLRHIKLHSGEKPFKCHLCNYACRRKDSVVAHKAKSH [double hybrid degron, ZFP91 ZF4 beta hairpin-IKZF1 ZF2 alpha helix plus IKZF1 ZF3 beta hairpin-ZFP91 ZF5 alpha helix] | – | improved the sensitivity | ~50% | –
LQCEICGFTCRQKGNLLRHIKLH [single hybrid, single zinc finger degron, ZFP91 ZF4 beta hairpin-IKZF1 ZF2 alpha helix, no second zinc finger, reference compound] | – | reduced thalidomide sensitivity | – | increase sensitivity

— US20250206789A1, “ZINC FINGER DEGRON SEQUENCES” (STICHTING HET NEDERLANDS KANKER INSTITUUT-ANTONI VAN …, priority 2022, published 2025)
